Data from ChEMBL document CHEMBL1201862, “PubChem BioAssay data set” (2004).
Calls of active or inactive are those of the source.

Assays:
HeLa = assay: Cytotoxicity counterscreen assay for transcriptional activators of heat shock protein 70 (Hsp70). [Related pubchem assays: 1203, 1252 ]; assay type: functional; conditions: Homo sapiens;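 note: cells exposed to compound for 16 hours before readout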
Wee1-like protein kinase = Wee1-like protein kinase (Homo sapiens, UniProt P30291); assay: Dose Response Cell-based Assay for Inhibitors of Wee1 Degradation. [Related pubchem assays: 1410, 1321 ]; assay type: functional
[1] = cytotoxicity toward DRD oncogenic fibroblasts, dose response, cell-based, non-viral oncogenic, luminescence (AID 1934); assay type: functional; conditions: Homo sapiens
[2] = target: G2/mitotic-specific cyclin-B1 (Homo sapiens, UniProt P14635); assay: Counterscreen assay for inhibitors of Wee1 degradation: dose response cell-based assay to identify inhibitors of cyclin B degradation. [Related pubchem assays: 1410, 1321 ]; assay type: functional
BJ [3] = assay: cells; assay type: functional, cell-based; conditions: Homo sapiens
[4] = target: E3 ubiquitin-protein ligase Mdm2 (Homo sapiens, UniProt Q00987); assay: enhancers of MDM2-luciferase reporter signal, concentration-effect titration, project on inhibitors of MDM2 ubiquitin ligase, cellular assay, luminescent readout, 384-well plate format (AID 1394); assay type: functional;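 note: MDM2 E3 inhibitors raise luminescence so EC50 is for signal enhancement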
BJ [5] = assay: cytotoxicity toward BJ-TERT-LT-ST fibroblasts, dose response, cell-based, RAS-independent, luminescence (AID 1935); assay type: functional; conditions: Homo sapiens;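 note: BJ fibroblasts immortalized with TERT plus LT and ST oncogenes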
BJ [6] = assay: cytotoxicity toward BJ-TERT fibroblasts, dose response, cell-based, RAS-independent, luminescence (AID 1933); assay type: functional; conditions: Homo sapiens
Estrogen receptor = target: T1, Estrogen receptor (Homo sapiens, UniProt P03372); assay: ERα–SRC-3 coactivator interaction inhibitors, confirmation, orthogonal assay, biochemical, ELISA, streptavidin-HRP readout (AID 1079)
T1 sequence (P03372 whole entry): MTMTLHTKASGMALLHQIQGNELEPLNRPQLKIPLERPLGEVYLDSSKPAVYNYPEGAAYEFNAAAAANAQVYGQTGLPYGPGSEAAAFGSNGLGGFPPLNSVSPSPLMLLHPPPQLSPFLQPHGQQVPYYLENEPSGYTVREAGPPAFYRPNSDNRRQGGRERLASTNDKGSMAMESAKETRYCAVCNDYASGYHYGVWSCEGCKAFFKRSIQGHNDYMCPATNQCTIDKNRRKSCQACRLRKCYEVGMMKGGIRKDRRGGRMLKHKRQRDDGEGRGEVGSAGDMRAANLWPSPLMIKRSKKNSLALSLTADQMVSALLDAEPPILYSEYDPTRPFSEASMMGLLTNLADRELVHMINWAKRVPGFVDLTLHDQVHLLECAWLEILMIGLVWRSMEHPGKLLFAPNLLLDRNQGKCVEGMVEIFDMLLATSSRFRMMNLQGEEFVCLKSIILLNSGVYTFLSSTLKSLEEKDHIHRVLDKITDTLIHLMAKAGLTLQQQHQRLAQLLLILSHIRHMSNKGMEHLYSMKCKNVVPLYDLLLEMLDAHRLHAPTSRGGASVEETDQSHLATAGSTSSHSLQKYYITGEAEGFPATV

[7] = target: Lysosomal acid glucosylceramidase (Homo sapiens, UniProt P04062); assay: Dose response cell-based high throughput screening assay to identify enhancers of beta-glucosidase activity. [Related pubchem assays: 784 ]; assay type: functional
HEK293 = assay: Fluorescence-based counterscreen for potentiators or agonists of NPY-Y2: cell-based high-throughput dose response assay to identify inhibitors of cyclic nucleotide gated ion channel (CNGC) activity. In this assay, the parental HEK293 cell line transfected with a cyclic-nucleotide gated ion channel (CNGC)-based cAMP sensor is used to measure inhibition of isoproterenol-induced CNGC activity by test compound.; assay type: functional; conditions: Homo sapiens;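 note: stimulus is 1 µM isoproterenol at EC100 plus PDE inhibitor Ro 20-1724 at 25 µM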
[8] = target: Neuropeptide Y receptor type 1 (Homo sapiens, UniProt P25929); assay: Fluorescence-based counterscreen for agonists of NPY-Y2: cell-based high-throughput dose response assay for agonists of NPY-Y1.; assay type: functional
[9] = target: T2, Heat shock factor protein 1 (Mus musculus, UniProt P38532); assay: inhibition of MG132-induced HSE-luciferase signal, confirmation, cell-based, NIH3T3, luminescence, dose retest (AID 2382); assay type: functional;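 note: NIH3T3 fibroblasts with HSF1-driven luciferase reporter stressed by proteasome inhibitor MG132; luminescence from HSF1-driven luciferase expression after 8 hours of MG132 stress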
T2 sequence (P38532 whole entry): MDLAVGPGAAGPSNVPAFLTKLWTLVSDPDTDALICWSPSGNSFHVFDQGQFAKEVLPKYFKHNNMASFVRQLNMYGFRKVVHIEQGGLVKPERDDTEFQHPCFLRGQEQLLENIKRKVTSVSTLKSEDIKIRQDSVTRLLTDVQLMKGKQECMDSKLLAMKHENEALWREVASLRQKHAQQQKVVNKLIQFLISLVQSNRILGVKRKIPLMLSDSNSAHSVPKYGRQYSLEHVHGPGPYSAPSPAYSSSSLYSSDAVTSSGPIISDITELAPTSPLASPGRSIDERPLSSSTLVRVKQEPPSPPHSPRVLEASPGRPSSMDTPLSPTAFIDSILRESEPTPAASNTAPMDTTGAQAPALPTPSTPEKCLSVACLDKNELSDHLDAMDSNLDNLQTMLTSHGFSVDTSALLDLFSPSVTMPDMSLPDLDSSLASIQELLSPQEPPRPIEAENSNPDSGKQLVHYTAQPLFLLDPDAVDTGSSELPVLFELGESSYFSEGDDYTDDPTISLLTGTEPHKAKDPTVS

[10] = cytotoxicity toward NIH3T3 fibroblasts, dose response, counter-screen, cell-based, ATP luminescence, mouse fibroblasts (AID 2010); assay type: functional;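 note: cells exposed to compound for about 90 hours before reading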
[11] = target: Neuropeptide Y receptor type 2 (Homo sapiens, UniProt P49146); assay: Fluorescence-based cell-based high-throughput dose response assay for agonists of NPY-Y2. [Related pubchem assays: 1703 (Screening assay (CNGC inhibitors).), 1359 (Screening assay (NPY-Y2 potentiators or agonists).), 1304 (Screening assay (NPY-Y1 potentiators or agonists).), 1710 (Screening assay (NPY-Y2 agonists).), 1791 (Summary AID.)]; assay type: functional
[12] = inhibitors of intracellular T. cruzi replication, confirmation, NIH3T3 host cells, beta-gal luminescence (AID 2044); assay type: functional, cell-based;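 note: intracellular parasites grown in NIH/3T3 mouse fibroblasts as host cells; luminescent beta-galactosidase reporter signal from transgenic T. cruzi replicating inside host cells; inhibitors lower the luminescence signal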
[13] = A cytotoxicity screen of small molecule inhibitors of the PhoP region in Salmonella typhi identified in the primary screen. [Related pubchem assays: 1850, 1864, 1985 ]; assay type: functional
[14] = target: Peroxisome proliferator-activated receptor gamma/Nuclear receptor corepressor 2 (Homo sapiens, UniProt P37231+Q9Y618); assay type: functional
[15] = target: Photoreceptor-specific nuclear receptor (Homo sapiens, UniProt Q9Y5X4); assay type: functional;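 note: potency for compounds that break the NR2E3 corepressor complex and count as activators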
[16] = target: T3, Heat shock 70 kDa protein 1A (Homo sapiens, UniProt P0DMV8); assay: Hsp70 inhibitors, probe displacement, primary screen, biochemical, fluorescence polarization (AID 583)
[17] = target: T3, Heat shock 70 kDa protein 1A; assay: Hsp70 inhibitors, biochemical, TR-FRET (AID 786)
NS3 = NS3 (Hepatitis C virus, UniProt A3EZJ3); assay: PubChem AID 2173; design: species or system Hepacivirus hominis
[18] = target: Heat shock protein HSP 90-alpha (Homo sapiens, UniProt P07900); assay type: functional, organism-based
[19] = THP-1 cell cytotoxicity, dose response, cytotoxicity control for non-replicating M. tuberculosis project (AID 489025); assay type: functional
cells [20] = assay type: functional
cells [21] = assay type: functional, cell-based
[22] = inhibitors of SNCA 5'UTR-driven translation, confirmation, luminescence, H4 neuroglioblastoma cells, dose confirmation (AID 2454); assay type: functional, cell-based;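 note: H4 neuroglioblastoma cells carrying an alpha-synuclein 5'UTR luciferase reporter; potency for inhibition of the luciferase signal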
[23] = system: Streptococcus sp. 'group A'; assay: growth inhibition of control SK(-) GAS strain, dose response, counter-screen for streptokinase expression inhibitor project, luminescence, kanamycin, BacTiterGlo, confirmation (AID 1900); assay type: functional, organism-based
Streptokinase A = target: T4, Streptokinase A (Streptococcus pyogenes serotype M1, UniProt P10520); assay: S. pyogenes streptokinase expression inhibitors, potency, dose response, plasminogen activation absorbance, OD405 (AID 1914); assay type: functional, Streptococcus pyogenes M1 GAS;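 note: secreted streptokinase activity via plasminogen activation per viability signal from cell pellet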
T4 sequence (P10520 whole entry): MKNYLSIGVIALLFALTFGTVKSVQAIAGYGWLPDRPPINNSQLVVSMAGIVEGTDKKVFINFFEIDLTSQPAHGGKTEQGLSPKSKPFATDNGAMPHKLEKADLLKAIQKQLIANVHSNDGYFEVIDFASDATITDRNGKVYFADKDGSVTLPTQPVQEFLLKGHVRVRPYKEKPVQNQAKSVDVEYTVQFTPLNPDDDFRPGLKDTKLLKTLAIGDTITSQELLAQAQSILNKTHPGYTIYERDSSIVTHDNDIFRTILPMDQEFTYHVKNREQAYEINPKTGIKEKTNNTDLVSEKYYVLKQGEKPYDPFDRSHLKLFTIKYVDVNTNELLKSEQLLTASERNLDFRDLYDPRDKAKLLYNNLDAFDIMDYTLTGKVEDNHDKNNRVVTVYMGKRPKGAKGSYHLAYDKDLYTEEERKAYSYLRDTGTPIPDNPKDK

INS1 = assay: beta cell apoptosis inhibitors, cytokine rescue, dose response, luminescence, retest (AID 449756); assay type: functional, cell-based; conditions: Rattus norvegicus;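 note: cell death triggered by IL-1 beta plus TNF-alpha plus IFN-gamma mixture; protective hits raise ATP signal compared with cytokine alone wells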
Streptococcus = assay: Group A Streptococcus viability loss, dose response, counter-screen for streptokinase expression inhibitor project, luminescence, BacTiterGlo (AID 1915); assay type: functional, organism-based;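 note: potency for reduction of bacterial viability or growth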
[24] = microbe, parasite or virus in culture; assay type: functional; conditions: Mycobacterium tuberculosis
[25] = inhibitors of SNCA 5'UTR-driven reporter translation, confirmation, H4 neuroglioma cells, luminescence (AID 1988); assay type: functional, cell-based
[26] = cytotoxicity in HEK-293T cells, dose response, cytotoxicity control for TCR NF-kB inhibitor project, luminescence, T-cell screen hits (AID 489026); assay type: functional, cell-based;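 note: cells exposed to compound about 14 hours before the viability readout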
[27] = Vero E6 cell cytotoxicity, dose response, cytotoxicity control for non-replicating M. tuberculosis project, secondary assay (AID 492998); assay type: functional, VeroE6; conditions: Vero C1008
[28] = luciferase reporter signal reduction – luminescence, H4-C neuroglioblastoma cells, dose response (AID 2458); assay type: functional, cell-based;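 note: H4 neuroglioblastoma cells stably carrying a luciferase reporter gene fusion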
Chaperone protein dnaK = Chaperone protein dnaK (Escherichia coli, UniProt C3TRK2); assay: DnaK beta-domain binding affinity, SAR follow-up, orthogonal assay for DnaK modulator project, biophysical, isothermal titration calorimetry, full-length DnaK (AID 1495)

T3 sequence (P0DMV8 whole entry): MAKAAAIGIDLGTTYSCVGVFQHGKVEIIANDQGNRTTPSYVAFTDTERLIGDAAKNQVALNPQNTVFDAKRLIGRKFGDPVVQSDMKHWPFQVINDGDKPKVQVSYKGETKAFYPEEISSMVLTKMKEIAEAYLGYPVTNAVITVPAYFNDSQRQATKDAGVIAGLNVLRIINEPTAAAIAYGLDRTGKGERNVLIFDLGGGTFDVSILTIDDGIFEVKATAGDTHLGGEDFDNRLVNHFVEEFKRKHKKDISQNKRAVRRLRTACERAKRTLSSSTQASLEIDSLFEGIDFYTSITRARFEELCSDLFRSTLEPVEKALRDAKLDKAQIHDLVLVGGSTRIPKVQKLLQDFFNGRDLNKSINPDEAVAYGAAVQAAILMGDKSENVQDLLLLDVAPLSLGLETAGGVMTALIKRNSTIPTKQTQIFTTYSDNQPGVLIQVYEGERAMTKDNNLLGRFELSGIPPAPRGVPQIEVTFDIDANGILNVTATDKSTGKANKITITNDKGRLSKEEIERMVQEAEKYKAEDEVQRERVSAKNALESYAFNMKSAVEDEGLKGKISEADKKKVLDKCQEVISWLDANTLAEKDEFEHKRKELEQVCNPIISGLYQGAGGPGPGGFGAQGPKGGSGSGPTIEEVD
Chain of Neuropeptide Y receptor type 2 (P49146 whole entry): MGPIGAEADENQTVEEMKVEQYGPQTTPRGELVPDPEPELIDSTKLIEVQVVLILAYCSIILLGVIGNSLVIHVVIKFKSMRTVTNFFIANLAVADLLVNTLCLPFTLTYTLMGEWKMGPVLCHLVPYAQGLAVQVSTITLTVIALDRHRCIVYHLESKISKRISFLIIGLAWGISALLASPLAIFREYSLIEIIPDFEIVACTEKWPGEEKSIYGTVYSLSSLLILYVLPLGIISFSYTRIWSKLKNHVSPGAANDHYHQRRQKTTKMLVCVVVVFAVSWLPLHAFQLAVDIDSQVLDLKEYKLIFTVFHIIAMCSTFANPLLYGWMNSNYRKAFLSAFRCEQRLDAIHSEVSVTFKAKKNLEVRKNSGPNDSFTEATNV
Chain of G2/mitotic-specific cyclin-B1 (P14635 whole entry): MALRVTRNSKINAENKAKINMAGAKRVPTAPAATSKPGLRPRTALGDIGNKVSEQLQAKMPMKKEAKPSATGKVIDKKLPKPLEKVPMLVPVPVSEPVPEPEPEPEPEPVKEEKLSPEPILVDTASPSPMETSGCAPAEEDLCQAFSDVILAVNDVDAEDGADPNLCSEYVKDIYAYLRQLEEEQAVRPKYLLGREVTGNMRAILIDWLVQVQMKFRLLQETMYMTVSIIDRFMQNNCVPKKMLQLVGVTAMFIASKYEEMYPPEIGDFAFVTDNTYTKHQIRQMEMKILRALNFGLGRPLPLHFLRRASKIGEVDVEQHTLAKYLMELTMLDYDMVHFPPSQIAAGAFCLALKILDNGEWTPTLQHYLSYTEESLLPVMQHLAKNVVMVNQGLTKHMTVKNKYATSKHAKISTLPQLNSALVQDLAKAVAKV
Chain of Lysosomal acid glucosylceramidase (P04062 whole entry): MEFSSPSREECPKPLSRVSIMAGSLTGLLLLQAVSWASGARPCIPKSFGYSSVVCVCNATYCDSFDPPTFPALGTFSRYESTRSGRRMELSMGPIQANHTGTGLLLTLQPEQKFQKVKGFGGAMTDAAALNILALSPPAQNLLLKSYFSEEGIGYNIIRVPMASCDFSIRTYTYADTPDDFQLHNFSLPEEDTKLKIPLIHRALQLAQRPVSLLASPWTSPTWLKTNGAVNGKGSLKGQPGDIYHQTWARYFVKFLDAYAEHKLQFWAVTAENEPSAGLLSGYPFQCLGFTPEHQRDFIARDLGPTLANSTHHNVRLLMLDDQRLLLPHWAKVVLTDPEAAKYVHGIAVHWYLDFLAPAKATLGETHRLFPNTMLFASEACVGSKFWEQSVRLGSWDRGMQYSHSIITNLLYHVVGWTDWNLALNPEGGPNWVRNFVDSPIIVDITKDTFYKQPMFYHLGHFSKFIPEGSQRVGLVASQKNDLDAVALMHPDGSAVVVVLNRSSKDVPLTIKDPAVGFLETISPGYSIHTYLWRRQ
Chain of Peroxisome proliferator-activated receptor gamma/Nuclear receptor corepressor 2 (P37231 whole entry): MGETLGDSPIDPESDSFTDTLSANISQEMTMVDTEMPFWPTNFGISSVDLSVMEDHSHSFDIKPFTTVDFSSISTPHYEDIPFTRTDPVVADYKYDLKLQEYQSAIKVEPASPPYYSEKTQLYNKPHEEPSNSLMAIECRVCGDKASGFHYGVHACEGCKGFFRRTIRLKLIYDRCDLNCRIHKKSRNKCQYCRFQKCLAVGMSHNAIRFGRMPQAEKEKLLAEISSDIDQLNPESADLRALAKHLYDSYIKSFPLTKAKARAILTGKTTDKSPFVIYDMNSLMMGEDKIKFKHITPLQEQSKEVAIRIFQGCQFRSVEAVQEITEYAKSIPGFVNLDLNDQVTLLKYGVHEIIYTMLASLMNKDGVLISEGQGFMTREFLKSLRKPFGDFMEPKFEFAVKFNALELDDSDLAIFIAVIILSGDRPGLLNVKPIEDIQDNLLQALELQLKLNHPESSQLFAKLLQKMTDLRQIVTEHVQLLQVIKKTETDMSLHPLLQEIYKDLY
Chain of Peroxisome proliferator-activated receptor gamma/Nuclear receptor corepressor 2 (Q9Y618 whole entry): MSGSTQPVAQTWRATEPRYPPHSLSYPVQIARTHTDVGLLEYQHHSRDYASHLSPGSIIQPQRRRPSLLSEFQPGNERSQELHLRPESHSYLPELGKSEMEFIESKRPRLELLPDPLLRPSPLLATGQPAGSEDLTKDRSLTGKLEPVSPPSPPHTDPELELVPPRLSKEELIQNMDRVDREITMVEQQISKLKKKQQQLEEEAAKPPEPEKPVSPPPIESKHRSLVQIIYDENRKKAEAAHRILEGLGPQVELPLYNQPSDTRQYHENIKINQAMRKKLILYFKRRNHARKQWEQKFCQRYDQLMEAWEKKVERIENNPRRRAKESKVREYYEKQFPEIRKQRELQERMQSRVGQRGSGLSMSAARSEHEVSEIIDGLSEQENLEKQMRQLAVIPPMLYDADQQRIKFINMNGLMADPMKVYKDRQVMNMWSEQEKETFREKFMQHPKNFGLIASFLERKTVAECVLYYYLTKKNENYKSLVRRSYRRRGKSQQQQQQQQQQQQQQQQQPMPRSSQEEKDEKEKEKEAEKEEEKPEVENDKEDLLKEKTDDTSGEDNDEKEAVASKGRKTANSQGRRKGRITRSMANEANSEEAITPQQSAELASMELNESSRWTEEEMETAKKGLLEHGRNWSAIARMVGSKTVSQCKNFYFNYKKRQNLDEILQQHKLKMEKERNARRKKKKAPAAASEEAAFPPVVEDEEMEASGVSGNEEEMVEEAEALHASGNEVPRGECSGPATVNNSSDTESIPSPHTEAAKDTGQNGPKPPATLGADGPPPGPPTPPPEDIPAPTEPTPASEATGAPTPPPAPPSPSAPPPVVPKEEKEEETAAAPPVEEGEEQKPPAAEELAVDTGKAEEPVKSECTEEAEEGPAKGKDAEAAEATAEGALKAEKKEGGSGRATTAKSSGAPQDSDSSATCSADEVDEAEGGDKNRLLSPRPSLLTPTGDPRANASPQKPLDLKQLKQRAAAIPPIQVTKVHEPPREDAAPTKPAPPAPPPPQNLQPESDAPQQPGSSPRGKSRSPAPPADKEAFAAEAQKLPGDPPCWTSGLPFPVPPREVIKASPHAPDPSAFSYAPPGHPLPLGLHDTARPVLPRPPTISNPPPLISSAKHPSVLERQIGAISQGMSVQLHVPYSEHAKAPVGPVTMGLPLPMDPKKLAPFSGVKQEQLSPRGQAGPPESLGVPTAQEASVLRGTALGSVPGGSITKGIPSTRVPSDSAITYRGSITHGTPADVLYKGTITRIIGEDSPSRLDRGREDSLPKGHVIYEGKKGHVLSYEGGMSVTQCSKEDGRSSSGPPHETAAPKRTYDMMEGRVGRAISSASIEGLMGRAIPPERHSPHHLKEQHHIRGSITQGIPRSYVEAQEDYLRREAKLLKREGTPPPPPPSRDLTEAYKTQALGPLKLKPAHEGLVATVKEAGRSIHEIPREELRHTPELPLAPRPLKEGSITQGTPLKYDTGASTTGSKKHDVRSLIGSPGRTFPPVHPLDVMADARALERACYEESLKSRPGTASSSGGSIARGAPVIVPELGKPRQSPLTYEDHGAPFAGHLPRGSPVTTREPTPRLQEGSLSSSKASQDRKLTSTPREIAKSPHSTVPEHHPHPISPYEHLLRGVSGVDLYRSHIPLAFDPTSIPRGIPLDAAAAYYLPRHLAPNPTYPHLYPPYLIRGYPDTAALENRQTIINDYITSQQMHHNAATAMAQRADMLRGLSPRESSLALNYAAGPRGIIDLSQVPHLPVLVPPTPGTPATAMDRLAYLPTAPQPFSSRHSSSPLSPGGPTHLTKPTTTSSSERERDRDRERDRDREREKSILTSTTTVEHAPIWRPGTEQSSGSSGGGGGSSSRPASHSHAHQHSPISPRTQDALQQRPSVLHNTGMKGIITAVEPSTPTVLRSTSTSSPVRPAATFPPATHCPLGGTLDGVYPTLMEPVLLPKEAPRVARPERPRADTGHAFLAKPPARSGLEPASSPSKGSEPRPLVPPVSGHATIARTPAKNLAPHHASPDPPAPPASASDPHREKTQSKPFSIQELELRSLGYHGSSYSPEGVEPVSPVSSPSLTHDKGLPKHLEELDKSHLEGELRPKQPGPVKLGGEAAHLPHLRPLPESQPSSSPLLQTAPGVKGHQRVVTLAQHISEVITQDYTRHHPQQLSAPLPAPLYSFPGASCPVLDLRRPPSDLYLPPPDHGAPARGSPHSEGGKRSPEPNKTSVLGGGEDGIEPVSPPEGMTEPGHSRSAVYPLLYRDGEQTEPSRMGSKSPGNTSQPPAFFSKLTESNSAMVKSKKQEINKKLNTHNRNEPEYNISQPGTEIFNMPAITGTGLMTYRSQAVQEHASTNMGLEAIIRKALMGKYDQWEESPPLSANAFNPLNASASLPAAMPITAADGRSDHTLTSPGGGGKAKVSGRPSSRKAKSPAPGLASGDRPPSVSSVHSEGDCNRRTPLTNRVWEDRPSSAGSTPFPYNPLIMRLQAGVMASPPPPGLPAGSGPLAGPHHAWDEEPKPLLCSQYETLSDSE

C=CS(=O)(=O)c1ccc(Oc2ccc(S(=O)(=O)C=C)cc2)cc1
CC50 (HeLa): > 1.22 µM (not active) | EC50 (Wee1-like protein kinase): > 49.7 µM (not active) | EC50 [1]: 3.83 µM (active) | EC50 [2]: > 5.53 µM (active) | EC50 (BJ [3]): > 150 µM (inconclusive) | EC50 [4]: 2.64 µM (active) | EC50 (BJ [5]): > 150 µM (inconclusive) | EC50 (BJ [6]): 2.24 µM (inconclusive)

O=C(CCCn1c(=S)[nH]c2ccccc2c1=O)N1CCN(c2ccc(Cl)cc2)CC1
IC50 (Estrogen receptor): 19.8 µM (not active)

CCCCN(CC)CCCNC(=O)c1cc2cc3ccc(OC)cc3nc2o1
EC50 [7]: > 50 µM (not active)

COc1ccc2c(c1)c(CC(=O)Nc1nnc(C3CC3)s1)c(C)n2C(=O)c1ccc(Cl)cc1
EC50 (HEK293): > 35.4 µM (not active) | EC50 [8]: > 35.4 µM (not active) | EC50 [9]: 21.6 µM (active) | EC50 [10]: 5.09 µM (active) | EC50 [11]: > 35.4 µM (not active) | EC50 [12]: 2.28 µM (active)

Cc1ccsc1/C=N\NC(=O)c1ccc2c(c1)OCO2
EC50 [13]: > 50 µM (active)

O=C(O)c1cc(-c2ccco2)nc2ccc(Br)cc12
IC50 [14]: 1.58 µM (active) | IC50 [15]: > 39.8 µM (not active)

Cc1ccc(OCCN2CCN(C(=O)CCC(=O)Nc3nnc(C)s3)CC2)cc1
IC50 [16]: > 100 µM (not active) | IC50 [17]: > 100 µM (not active)

O=C(N/N=C/c1cc(Cl)c(O)c(Cl)c1)c1cc2c(ccc3ccccc32)o1
IC50 (NS3): 4.26 µM (active) | AC50 [18]: 4.54 µM (active)

CCOc1ccc(Nc2cc(C)nc(-n3nc(C)cc3C)n2)cc1
CC50 [19]: 0.357 µM (active) | IC50 (cells [20]): 0.56 µM (active) | EC50 (cells [21]): 0.969 µM (active) | EC50 [22]: 0.88 µM (active) | EC50 [23]: 7.01 µM (active) | EC50 (Streptokinase A): > 150 µM (not active) | AC50 (INS1): 2.55 µM (active) | EC50 (Streptococcus): > 150 µM (not active) | CC50 [24]: 6.26 µM (active) | EC50 [25]: < 0.1 µM (active) | IC50 [26]: > 80 µM (inactive) | CC50 [27]: 1.14 µM (active) | EC50 [28]: 0.588 µM (active)

O=C(c1cccs1)N1CCN(CCO)CC1
Kd (Chaperone protein dnaK): 16.7 µM (inactive)
